# In US20090062369A1, “USE OF SECRETORY PHOSPHOLIPASE A2 (SPLA2) INHIBITORS TO DECREASE SPLA2 LEVELS” (priority 2007, published 2009):
# Test system: serum sPLA2
# Assay: Effect of twice-a-day oral A-002 on serum sPLA2 levels in subjects with stable coronary artery disease (Example 6)
# Format: in vivo, human
# Protocol: The protocol for preparing standard curve, test, and quality control samples for use in the assay disclosed herein is set forth in Example 5. Samples are prepared according to this protocol, then loaded in duplicate onto a plate (Cayman catalog no. 485002 or equivalent) that has been pre-coated with a monoclonal sPLA2 antibody (“capture antibody”) that specifically binds sPLA2. In certain embodiments, the capture antibody may interact with a specific form of sPLA2, such as for example sPLA2 type IIA.
# sPLA2 acetylcholinesterase:Fab′ conjugate (AChE:Fab′) (“conjugate”) (Cayman catalog no. 485000 or equivalent) is reconstituted in EIA buffer (Cayman catalog no. 400060 or equivalent). Cayman EIA buffer is 1M phosphate, pH 7.0, 1% BSA, 4M NaCl, 10 mM EDTA, and 0.1% sodium azide. Reconstituted conjugate is added to each well of the plate. The conjugate binds a different sPLA2 epitope than the capture antibody, allowing the capture antibody and the conjugate to form a “sandwich” that is immobilized on the plate. Excess reagents are washed away, and the plate is covered and incubated overnight at 2-8° C.
# Prior to development, the wells are washed five to six times with wash buffer (Cayman catalog no. 400062 or equivalent). To develop the plate, Ellman's Reagent (Cayman catalog no. 400050 or equivalent) is reconstituted in water and added to each well according to manufacturer instructions. The reconstituted Ellman's Reagent must be used the same day it is prepared because it is unstable. Ellman's Reagent contains an AChE substrate. Specifically, Ellman's Reagent contains acetylthiocholine and 5,5′-dithio-bis-(2-nitrobenzoic acid). Hydrolysis of acetylthiocholine by acetylcholinesterase produces thiocholine, which reacts with 5,5′-dithio-bis-(2-nitrobenzoic acid) to produce 5-thio-2-nitrobenzoic acid. 5-thio-2-nitrobenzoic acid has a strong absorbance at 412 nm. The intensity of absorbance at this wavelength is directly proportional to the concentration of bound conjugate, which is in turn is directly proportional to the concentration of sPLA2 present (Absorbance a [AChE:Fab′ conjugate] α [sPLA2]). During the development step, the plate is shaken, preferably in the dark. In certain embodiments the development time for the assay is 0.5 to 3 hours, preferably 1 to 1.5 hours. At the end of the development period, the high sPLA2 standards should have greater yellow color development than the zero standards. Absorbance of each well is measured at 400-420 nm using a micro-well plate reader. In certain embodiments, absorbance is measured at about 405 nm.
# Absorbance readings for duplicate wells are averaged, and the relative standard deviation and % CV are calculated. Standard curve data are used to generate a four parameter curve, and quality control and test samples are measured against the appropriate standard curve (i.e., the standard curve with the same serum content). In order for a test to be considered valid, variation between duplicate wells should be no more than about 25%, and negative controls (blanks) for each standard curve should have a mean absorbance of less than about 0.3.
# The method disclosed herein for measuring sPLA2 levels in serum was utilized to determine the effect of administering certain sPLA2 inhibitors on sPLA2 levels in 84 human subjects. The subjects included 24 subjects with diabetes, 32 subjects with metabolic syndrome, and 75 subjects receiving statin treatment. Subjects were administered the sPLA2 inhibitor A-002, a prodrug form of A-001, twice a day at varying dosages from 50 to 500 mg. The structures of A-002and A-001 are set forth below. At two weeks and four weeks after the first administration, sPLA2 levels were measured and compared to pre-administration baseline levels.
# 84 subjects with stable coronary artery disease were randomized to receive placebo or A-002 via oral administration twice a day over a four week administration period. […]
# [1] = 500 mg, non-diabetes subgroup of ITT population
# [2] = 500 mg, statin subgroup of ITT population
# [3] = A-002 (50 mg), ITT subjects exhibiting at least 3 out of 5 metabolic syndrome criteria
# [4] = A-002 (50 mg), non-statin subgroup of ITT population
# [5] = A-002 (100 mg), ITT subjects exhibiting at least 3 out of 5 metabolic syndrome criteria
# [6] = A-002 (100 mg), non-statin subgroup of ITT population
# [7] = A-002 (250 mg), ITT subjects exhibiting at least 3 out of 5 metabolic syndrome criteria
# [8] = A-002 (250 mg), non-statin subgroup of ITT population
# [9] = A-002 (500 mg), ITT subjects exhibiting at least 3 out of 5 metabolic syndrome criteria
smiles,measurement,setting,value
"CCc1c(C(=O)C(N)=O)c2c(OCC(=O)OC)cccc2n1Cc1ccccc1 [A-002, [[3-(2-Amino-1,2-dioxoethyl)-2-ethyl-1-(phenylmethyl)-1H-indol-4-yl]oxy]acetic acid methyl ester]","sPLA2 level, Week 2, Range",[1],0.05 to 0.50 ng/mL
same,"sPLA2 level, Week 4, Mean",[1],0.13 ng/mL
same,"sPLA2 level, Week 4, Median",[1],0.05 ng/mL
same,"sPLA2 level, Week 4, Range",[1],0.05 to 0.40 ng/mL
same,"sPLA2 Change from baseline at week 2, Mean",[2],-2.93 ng/mL
same,"sPLA2 Change from baseline at week 2, Median",[2],-3.30 ng/mL
same,"sPLA2 Change from baseline at week 2, Range",[2],-4.80 to -0.55 ng/mL
same,"sPLA2 Change from baseline at week 4, Mean",[2],-2.99 ng/mL
same,"sPLA2 Change from baseline at week 4, Median",[2],-3.50 ng/mL
same,"sPLA2 Change from baseline at week 4, Range",[2],-4.80 to -0.55 ng/mL
same,"sPLA2 level, Baseline, Mean",[2],3.05 ng/mL
same,"sPLA2 level, Baseline, Median",[2],3.00 ng/mL
same,"sPLA2 level, Baseline, Range",[2],0.60 to 5.40 ng/mL
same,"sPLA2 level, Week 2, Mean",[2],0.20 ng/mL
same,"sPLA2 level, Week 2, Median",[2],0.10 ng/mL
same,"sPLA2 level, Week 2, Range",[2],0.05 to 0.60 ng/mL
same,"sPLA2 level, Week 4, Mean",[2],0.14 ng/mL
same,"sPLA2 level, Week 4, Median",[2],0.05 ng/mL
same,"sPLA2 level, Week 4, Range",[2],0.05 to 0.60 ng/mL
same,"sPLA2 level, Baseline, Mean",[3],3.47 ng/mL
same,"sPLA2 level, Baseline, Median",[3],2.70 ng/mL
same,"sPLA2 level, Baseline, Range",[3],0.80 to 8.80 ng/mL
same,"sPLA2 level, Change from baseline at week 2, Mean",[3],-2.89 ng/mL
same,"sPLA2 level, Change from baseline at week 2, Median",[3],-2.50 ng/mL
same,"sPLA2 level, Change from baseline at week 2, Range",[3],-5.30 to -0.60 ng/mL
same,"sPLA2 level, Change from baseline at week 4, Mean",[3],-2.76 ng/mL
same,"sPLA2 level, Change from baseline at week 4, Median",[3],-2.15 ng/mL
same,"sPLA2 level, Change from baseline at week 4, Range",[3],-6.40 to -0.60 ng/mL
same,"sPLA2 level, Week 2, Mean",[3],0.96 ng/mL
same,"sPLA2 level, Week 2, Median",[3],0.30 ng/mL
same,"sPLA2 level, Week 2, Range",[3],0.20 to 4.00 ng/mL
same,"sPLA2 level, Week 4, Mean",[3],0.81 ng/mL
same,"sPLA2 level, Week 4, Median",[3],0.65 ng/mL
same,"sPLA2 level, Week 4, Range",[3],0.10 to 2.40 ng/mL
same,"sPLA2 level, Baseline, Mean",[4],1.80 ng/mL
same,"sPLA2 level, Baseline, Median",[4],1.80 ng/mL
same,"sPLA2 level, Baseline, Range",[4],1.80 to 1.80 ng/ml
same,"sPLA2 level, Baseline, Mean",[5],2.97 ng/mL
same,"sPLA2 level, Baseline, Median",[5],2.20 ng/mL
same,"sPLA2 level, Baseline, Range",[5],0.05 to 6.00 ng/mL
same,"sPLA2 level, Change from baseline at week 2, Mean",[5],-1.01 ng/mL
same,"sPLA2 level, Change from baseline at week 2, Median",[5],-1.80 ng/mL
same,"sPLA2 level, Change from baseline at week 2, Range",[5],−3.30 to +2.85 ng/ml
same,"sPLA2 level, Change from baseline at week 4, Mean",[5],-2.78 ng/mL
same,"sPLA2 level, Change from baseline at week 4, Median",[5],-2.70 ng/mL
same,"sPLA2 level, Change from baseline at week 4, Range",[5],-5.70 to 0.00 ng/mL
same,"sPLA2 level, Week 2, Mean",[5],1.20 ng/mL
same,"sPLA2 level, Week 2, Median",[5],0.80 ng/mL
same,"sPLA2 level, Week 2, Range",[5],0.30 to 2.90 ng/mL
same,"sPLA2 level, Week 4, Mean",[5],0.41 ng/mL
same,"sPLA2 level, Week 4, Median",[5],0.30 ng/mL
same,"sPLA2 level, Week 4, Range",[5],0.05 to 1.00 ng/mL
same,"sPLA2 level, Baseline, Mean",[6],3.85 ng/mL
same,"sPLA2 level, Baseline, Median",[6],3.85 ng/mL
same,"sPLA2 level, Baseline, Range",[6],2.80 to 4.90 ng/mL
same,"sPLA2 level, Change from baseline at week 2, Mean",[6],-1.90 ng/mL
same,"sPLA2 level, Change from baseline at week 2, Median",[6],-1.90 ng/mL
same,"sPLA2 level, Change from baseline at week 2, Range",[6],−1.90 to −1.90 ng/ml
same,"sPLA2 level, Change from baseline at week 4, Mean",[6],-3.05 ng/mL
same,"sPLA2 level, Change from baseline at week 4, Median",[6],-3.05 ng/mL
same,"sPLA2 level, Change from baseline at week 4, Range",[6],-4.40 to -1.70 ng/mL
same,"sPLA2 level, Week 2, Mean",[6],0.90 ng/mL
same,"sPLA2 level, Week 2, Median",[6],0.90 ng/mL
same,"sPLA2 level, Week 2, Range",[6],0.90 to 0.90 ng/ml
same,"sPLA2 level, Week 4, Mean",[6],0.80 ng/mL
same,"sPLA2 level, Week 4, Median",[6],0.80 ng/mL
same,"sPLA2 level, Week 4, Range",[6],0.50 to 1.10 ng/mL
same,"sPLA2 level, Baseline, Mean",[7],2.90 ng/mL
same,"sPLA2 level, Baseline, Median",[7],2.20 ng/mL
same,"sPLA2 level, Baseline, Range",[7],1.80 to 4.70 ng/mL
same,"sPLA2 level, Change from baseline at week 2, Mean",[7],-1.65 ng/mL
same,"sPLA2 level, Change from baseline at week 2, Median",[7],-1.65 ng/mL
same,"sPLA2 level, Change from baseline at week 2, Range",[7],-1.90 to -1.40 ng/mL
same,"sPLA2 level, Change from baseline at week 4, Mean",[7],-1.75 ng/mL
same,"sPLA2 level, Change from baseline at week 4, Median",[7],-1.75 ng/mL
same,"sPLA2 level, Change from baseline at week 4, Range",[7],-2.10 to -1.40 ng/mL
same,"sPLA2 level, Week 2, Mean",[7],0.33 ng/mL
same,"sPLA2 level, Week 2, Median",[7],0.30 ng/mL
same,"sPLA2 level, Week 2, Range",[7],0.30 to 0.40 ng/mL
same,"sPLA2 level, Week 4, Mean",[7],0.27 ng/mL
same,"sPLA2 level, Week 4, Median",[7],0.30 ng/mL
same,"sPLA2 level, Week 4, Range",[7],0.10 to 0.40 ng/mL
same,"sPLA2 level, Baseline, Mean",[8],3.40 ng/mL
same,"sPLA2 level, Baseline, Median",[8],3.40 ng/mL
same,"sPLA2 level, Baseline, Range",[8],3.40 to 3.40 ng/ml
same,"sPLA2 level, Change from baseline at week 2, Mean",[8],-2.10 ng/mL
same,"sPLA2 level, Change from baseline at week 2, Median",[8],-2.10 ng/mL
same,"sPLA2 level, Change from baseline at week 2, Range",[8],−2.10 to −2.10 ng/ml
same,"sPLA2 level, Change from baseline at week 4, Mean",[8],-2.20 ng/mL
same,"sPLA2 level, Change from baseline at week 4, Median",[8],-2.20 ng/mL
same,"sPLA2 level, Change from baseline at week 4, Range",[8],−2.20 to −2.20 ng/ml
same,"sPLA2 level, Week 2, Mean",[8],1.30 ng/mL
same,"sPLA2 level, Week 2, Median",[8],1.30 ng/mL
same,"sPLA2 level, Week 2, Range",[8],1.30 to 1.30 ng/ml
same,"sPLA2 level, Week 4, Mean",[8],1.20 ng/mL
same,"sPLA2 level, Week 4, Median",[8],1.20 ng/mL
same,"sPLA2 level, Week 4, Range",[8],1.20 to 1.20 ng/ml
same,"sPLA2 level, Baseline, Mean",[9],3.05 ng/mL
same,"sPLA2 level, Baseline, Median",[9],3.40 ng/mL
same,"sPLA2 level, Baseline, Range",[9],1.20 to 4.40 ng/mL
same,"sPLA2 level, Change from baseline at week 2, Mean",[9],-2.94 ng/mL
same,"sPLA2 level, Change from baseline at week 2, Median",[9],-3.50 ng/mL
same,"sPLA2 level, Change from baseline at week 2, Range",[9],-4.00 to -1.15 ng/mL
same,"sPLA2 level, Change from baseline at week 4, Mean",[9],-3.04 ng/mL
same,"sPLA2 level, Change from baseline at week 4, Median",[9],-3.70 ng/mL
same,"sPLA2 level, Change from baseline at week 4, Range",[9],-4.35 to -1.15 ng/mL
same,"sPLA2 level, Week 2, Mean",[9],0.16 ng/mL
same,"sPLA2 level, Week 2, Median",[9],0.05 ng/mL
same,"sPLA2 level, Week 2, Range",[9],0.05 to 0.40 ng/mL
same,"sPLA2 level, Week 4, Mean",[9],0.06 ng/mL
same,"sPLA2 level, Week 4, Median",[9],0.05 ng/mL
